Values quoted from earlier work in paper PMC12375981 (Protein Science : A Publication of the Protein Society, 2025).
Marks after values point to notes of the source that are not given here.

How the values were obtained:
WT 3CL^pro = WT 3CL^pro (Severe acute respiratory syndrome coronavirus 2, UniProt P0DTD1); settings: cited from earlier work
SARS‐CoV‐2 3CL^pro = settings: cited from earlier work

Compound | K D ^app (WT 3CL^pro) | increase of the strength of dimerization (SARS‐CoV‐2 3CL^pro)
COc1cccc2[nH]c(C(=O)N[C@@H](CC(C)C)C(=O)N[C@@H](C[C@@H]3CCNC3=O)C(=O)COP(=O)(O)O)cc12 [lufotrelvir] | 17 ± 2 ^b nM | –
CC(C)(C)[C@H](NC(=O)C(F)(F)F)C(=O)N1C[C@H]2[C@@H]([C@H]1C(=O)N[C@H](C#N)C[C@@H]1CCNC1=O)C2(C)C [nirmatrelvir] | – | about seven
